Assay: xn = mol fraction of the nth substance listed
Conditions: 93.2 kPa, Liquid, Vibrating tube method

CCCN [propan-1-amine] + CC#N
mass density [kg/m3]
Conditions	293.15 K	298.15 K	303.15 K	308.15 K
x2 = 0	716.48	711.21	705.88	700.62
x2 = 0.0105	717.02	711.79	706.42	701.16
x2 = 0.0199	717.49	712.26	706.89	701.63
x2 = 0.0296	717.97	712.74	707.37	702.11
x2 = 0.0409	718.55	713.3	708.3	702.66
x2 = 0.0512	719.01	713.79	708.42	703.16
x2 = 0.061	719.48	714.26	708.9	703.65
x2 = 0.0707	719.96	714.7	709.38	704.14
x2 = 0.0809	720.48	715.23	710.24	704.64
x2 = 0.0895	720.87	715.66	710.31	705.06
x2 = 0.0993	721.35	716.14	710.79	705.55
x2 = 0.1493	723.85	718.65	713.34	708.1
x2 = 0.2006	726.46	721.27	715.97	710.75
x2 = 0.2499	729.08	723.91	718.64	713.3
x2 = 0.2998	731.77	726.59	721.31	715.96
x2 = 0.3507	734.55	729.34	724.05	718.82
x2 = 0.3993	737.38	732.18	726.9	721.58
x2 = 0.4479	740.27	735.05	729.77	724.44
x2 = 0.4988	743.34	738.1	732.79	727.56
x2 = 0.5486	746.55	741.33	736.02	730.68
x2 = 0.6017	750.02	744.77	739.46	734.16
x2 = 0.6499	753.32	748.08	742.76	737.45
x2 = 0.6998	756.86	751.61	746.49	740.98
x2 = 0.7501	760.68	755.4	750.19	744.7
x2 = 0.8001	764.57	759.28	754.03	748.54
x2 = 0.8487	768.54	763.25	757.85	752.47
x2 = 0.8995	772.9	767.55	762.15	756.72
x2 = 0.9089	773.68	768.32	762.93	757.54
x2 = 0.9201	774.65	769.28	763.89	758.5
x2 = 0.928	775.36	770	764.6	759.19
x2 = 0.9393	776.43	771.07	765.67	760.24
x2 = 0.9491	777.27	771.89	766.51	761.05
x2 = 0.9594	778.22	772.82	767.45	761.98
x2 = 0.9678	778.99	773.6	768.21	762.74
x2 = 0.9795	780.09	774.69	769.3	763.82
x2 = 0.9893	781.01	775.61	770.21	764.73
